Legend:
Assay in all cases: cells
Assay type in all cases: functional, cell-based, Homo sapiens
MDA-MB-453 = settings: Homo sapiens, MDA-MB-453
Description: SANGER: Inhibition of human MDA-MB-453 cell growth in a cell viability assay.

OVCAR-3 = settings: Homo sapiens, OVCAR-3;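 also: growth inhibition of human OVCAR-3 cells, determined by a cell viability assay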
Description: SANGER: Inhibition of human OVCAR-3 cell growth in a cell viability assay.

SW1710 = settings: Homo sapiens, SW1710;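 also: growth inhibition of SW1710 cells, determined with a cell viability assay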
Description: SANGER: Inhibition of human SW1710 cell growth in a cell viability assay.

NUGC-3 = settings: Homo sapiens, NUGC-3;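 also: growth inhibition of human NUGC-3 cells, read out with a cell viability assay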
Description: SANGER: Inhibition of human NUGC-3 cell growth in a cell viability assay.

NCI-H441 = settings: Homo sapiens, NCI-H441;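 also: growth inhibition of NCI-H441 cells, read out with a cell viability assay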
Description: SANGER: Inhibition of human NCI-H441 cell growth in a cell viability assay.

RPMI-7951 = settings: Homo sapiens, RPMI-7951
Description: SANGER: Inhibition of human RPMI-7951 cell growth in a cell viability assay.

AU565 = settings: Homo sapiens, AU565;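 also: cell viability assay measuring growth inhibition of human AU565 cells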
Description: SANGER: Inhibition of human AU565 cell growth in a cell viability assay.

KYSE-410 = settings: Homo sapiens, KYSE-410;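 also: growth inhibition of KYSE-410 cells, measured through a cell viability readout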
Description: SANGER: Inhibition of human KYSE-410 cell growth in a cell viability assay.

GCT = settings: Homo sapiens, GCT;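 also: GCT cell line proliferation inhibition, read out with a cell viability assay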
Description: SANGER: Inhibition of human GCT cell growth in a cell viability assay.

SAS = settings: Homo sapiens, SAS;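 also: growth inhibition of SAS cells, read out with a cell viability assay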
Description: SANGER: Inhibition of human SAS cell growth in a cell viability assay.

RERF-LC-MS = settings: Homo sapiens, RERF-LC-MS;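 also: growth inhibition of human RERF-LC-MS cells, read out by a cell viability assay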
Description: SANGER: Inhibition of human RERF-LC-MS cell growth in a cell viability assay.

SW48 = settings: Homo sapiens, SW48;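 also: growth inhibition of SW48 cells, read out with a cell viability assay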
Description: SANGER: Inhibition of human SW48 cell growth in a cell viability assay.

HCC1806 = settings: Homo sapiens, HCC1806;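 also: growth inhibition of the cancer cell line, determined with a cell viability assay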
Description: SANGER: Inhibition of human HCC1806 cell growth in a cell viability assay.

D-566MG = settings: Homo sapiens, D-566MG
DOK = settings: Homo sapiens, DOK;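 also: cell viability assay read-out, values reflect inhibition of cell growth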
Description: SANGER: Inhibition of human DOK cell growth in a cell viability assay.

HO-1-N-1 = settings: Homo sapiens, HO-1-N-1;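 also: growth inhibition of human HO-1-N-1 cells, read out with a cell viability assay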
Description: SANGER: Inhibition of human HO-1-N-1 cell growth in a cell viability assay.

SW948 = settings: Homo sapiens, SW948;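 also: growth inhibition of SW948 cells, read out with a cell viability assay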
Description: SANGER: Inhibition of human SW948 cell growth in a cell viability assay.

ABC-1 = settings: Homo sapiens, ABC-1;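 also: growth inhibition of human ABC-1 cells, read out by a cell viability assay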
Description: SANGER: Inhibition of human ABC-1 cell growth in a cell viability assay.

HuP-T4 = settings: Homo sapiens, HuP-T4;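 also: cell viability assay measuring how much HuP-T4 cell growth is inhibited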
Description: SANGER: Inhibition of human HuP-T4 cell growth in a cell viability assay.

LU-99A = settings: Homo sapiens, LU-99A;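 also: growth inhibition of LU-99A cells, read out with a cell viability assay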
Description: SANGER: Inhibition of human LU-99A cell growth in a cell viability assay.

SW1463 = settings: Homo sapiens, SW1463;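 also: growth inhibition of SW1463 cells, determined with a cell viability assay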
Description: SANGER: Inhibition of human SW1463 cell growth in a cell viability assay.

SCC-25 = settings: Homo sapiens, SCC-25;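 also: growth inhibition of SCC-25 cells, measured with a cell viability assay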
Description: SANGER: Inhibition of human SCC-25 cell growth in a cell viability assay.

NCI-H2030 = settings: Homo sapiens, NCI-H2030;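 also: growth inhibition of human NCI-H2030 cells, read out by a cell viability assay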
Description: SANGER: Inhibition of human NCI-H2030 cell growth in a cell viability assay.

COR-L23 = settings: Homo sapiens, COR-L23;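 also: cell viability assay measuring how strongly compounds suppress growth of COR-L23 cells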
Description: SANGER: Inhibition of human COR-L23 cell growth in a cell viability assay.

NCI-H630 = settings: Homo sapiens, NCI-H630;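 also: growth inhibition of NCI-H630 cells, read out with a cell viability assay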
Description: SANGER: Inhibition of human NCI-H630 cell growth in a cell viability assay.

23132-87 = settings: Homo sapiens
Description: SANGER: Inhibition of human 23132-87 cell growth in a cell viability assay.

UACC-62 = settings: Homo sapiens, UACC-62;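 also: growth inhibition of human UACC-62 cells, read out by a cell viability assay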
Description: SANGER: Inhibition of human UACC-62 cell growth in a cell viability assay.

CAMA-1 = settings: Homo sapiens, CAMA-1;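 also: growth inhibition of CAMA-1 cells, read out with a cell viability assay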
Description: SANGER: Inhibition of human CAMA-1 cell growth in a cell viability assay.

BEN = settings: Homo sapiens, BEN;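 also: growth inhibition of the BEN cell line, read out with a cell viability assay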
Description: SANGER: Inhibition of human BEN cell growth in a cell viability assay.

HLE = settings: Homo sapiens, HLE;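 also: growth inhibition of human HLE cells, read out by a cell viability assay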
Description: SANGER: Inhibition of human HLE cell growth in a cell viability assay.

CAL-39 = settings: Homo sapiens, CAL-39;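 also: cell viability assay measuring growth inhibition of CAL-39 cells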
Description: SANGER: Inhibition of human CAL-39 cell growth in a cell viability assay.

SK-N-AS = settings: Homo sapiens, SK-N-AS;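 also: growth inhibition of human SK-N-AS cells, measured with a cell viability assay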
Description: SANGER: Inhibition of human SK-N-AS cell growth in a cell viability assay.

COLO-678 = settings: Homo sapiens, COLO-678
Description: SANGER: Inhibition of human COLO-678 cell growth in a cell viability assay.

RD = settings: Homo sapiens, RD
Description: SANGER: Inhibition of human RD cell growth in a cell viability assay.

U-118-MG = settings: Homo sapiens, U-118-MG
Description: SANGER: Inhibition of human U-118-MG cell growth in a cell viability assay.

M059J = settings: Homo sapiens, M059J;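 also: growth inhibition of M059J cells, read out with a cell viability assay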
Description: SANGER: Inhibition of human M059J cell growth in a cell viability assay.

CAL-72 = settings: Homo sapiens, CAL-72;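 also: cell viability assay measuring inhibition of proliferation in the CAL-72 cell line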
Description: SANGER: Inhibition of human CAL-72 cell growth in a cell viability assay.

NCI-H2405 = settings: Homo sapiens, NCI-H2405;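 also: growth inhibition of the human cell line, read out with a cell viability assay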
Description: SANGER: Inhibition of human NCI-H2405 cell growth in a cell viability assay.

| Structure (SMILES) | IC50 (MDA-MB-453) [nM] | IC50 (OVCAR-3) [nM] | IC50 (SW1710) [nM] | IC50 (NUGC-3) [nM] | IC50 (NCI-H441) [nM] | IC50 (RPMI-7951) [nM] | IC50 (AU565) [nM] | IC50 (KYSE-410) [nM] | IC50 (GCT) [nM] | IC50 (SAS) [nM] | IC50 (RERF-LC-MS) [nM] | IC50 (SW48) [nM] | IC50 (HCC1806) [nM] | IC50 (D-566MG) [nM] | IC50 (DOK) [nM] | IC50 (HO-1-N-1) [nM] | IC50 (SW948) [nM] | IC50 (ABC-1) [nM] | IC50 (HuP-T4) [nM] | IC50 (LU-99A) [nM] | further results |
| --- | --- | --- | --- | --- | --- | --- | --- | --- | --- | --- | --- | --- | --- | --- | --- | --- | --- | --- | --- | --- | --- |
| CC(C)c1ccccc1Cc1cc(C(=O)Nc2ccc(S(=O)(=O)c3ccccc3C(C)(C)C)cc2)c(O)c(O)c1O | 152 | 379 | 388 | 1150 | 1730 | 888 | 353 | 877 | 191 | 33.2 | 35.2 | 238 | 1430 | 116 | 1340 | 1420 | 32700 | 316 | 543 | 274 | IC50 (SW1463): 64800 nM; IC50 (SCC-25): 523 nM; IC50 (NCI-H2030): 2810 nM; IC50 (COR-L23): 591 nM; IC50 (NCI-H630): 808 nM; IC50 (23132-87): 324 nM; IC50 (UACC-62): 34.4 nM; IC50 (CAMA-1): 661 nM; IC50 (BEN): 7410 nM; IC50 (HLE): 121 nM; IC50 (CAL-39): 341 nM; IC50 (SK-N-AS): 181 nM; IC50 (COLO-678): 3310 nM; IC50 (RD): 960 nM; IC50 (U-118-MG): 190 nM; IC50 (M059J): 1300 nM; IC50 (CAL-72): 968 nM; IC50 (NCI-H2405): 675 nM |
| CC(C)CCN1c2nc(Nc3cc(F)c(O)c(F)c3)ncc2N(C)C(=O)C1C (stereo unspecified) | > 5000 | > 5000 | 2310 | > 5000 | > 5000 | 3400 | > 5000 | > 5000 | 2310 | > 5000 | > 5000 | 3430 | > 5000 | 2910 | 3770 | 3800 | > 5000 | > 5000 | > 5000 | > 5000 | IC50 (SW1463): > 5000 nM; IC50 (SCC-25): > 5000 nM; IC50 (NCI-H2030): > 5000 nM; IC50 (COR-L23): 4740 nM; IC50 (NCI-H630): > 5000 nM; IC50 (23132-87): > 5000 nM; IC50 (UACC-62): > 5000 nM; IC50 (CAMA-1): > 5000 nM; IC50 (BEN): > 5000 nM; IC50 (HLE): > 5000 nM; IC50 (CAL-39): 4940 nM; IC50 (SK-N-AS): 2290 nM; IC50 (COLO-678): > 5000 nM; IC50 (RD): 3430 nM; IC50 (U-118-MG): > 5000 nM; IC50 (M059J): 3710 nM; IC50 (CAL-72): > 5000 nM; IC50 (NCI-H2405): > 5000 nM |

From ChEMBL document CHEMBL1201861, “Genomics of Drug Sensitity in Cancer screening data, Wellcome Trust Sanger Institute”
